Data: patent US8569382B2, “Isolated compounds from Phaleria macrocarpa as anti-cancer agents” (PT. Dexa Medica, priority 2008, dated 2013)
In brackets after ≈: the same amount, converted by molar mass.

Key:
Assay type in all cases: cell-based
BCl2 mRNA expression = test: BCl2 RT-PCR in MDA-MB-231 cells; settings: various concentrations, serum free medium, FIGS. 10a, 10b
Experimental: (§1) BCl2 and Bax genes are genes acting in apoptosis process. To identify BCl2 and Bax mRNA expressions, RT-PCR (reverse-transcription PCR) was performed. MDA-MB-231 cancer cells were grown in plates and added with E2.2 compound samples as a single agent in various concentrations. Experiment condition was performed in serum free medium. RNA total was isolated from MDA-MB-231 cancer cells. RNA isolation products were quantified using spectrophotometer and visualized by agarose gel electrophoresis technique. The RNAs were then used in RT-PCR process using specific primers. RT-PCR process was performed in PCR machine with optimized condition.

MDA-MB-231 cancer cells = test: Anti-proliferation assay of MDA-MB-231 cancer cells (MTT); settings: for effect on proliferation of MDA-MB-231 cells (percentage of alive cancer cell): with increase of concentration, FIG. 7 (F1), FIG. 8 (E2.2)
Experimental: (§2) In this assay, the effect of E2.2 and F1 compounds as anti proliferation and E2.2 compound as apoptosis inducer against MDA-MB-231 cancer cells will be observed. MDA-MB-231 cells were cultured in supplemented medium cells, and then incubated at temperature 37° C., 5% CO2.
This assay was performed in 96-well plates. Each well contained certain cancer cell density. After incubation for 24 hours, medium was changed into serum free medium, after that it was added with E2.2 compound sample as a single agent in various concentrations, so was with F1 compound. Cells were then re-incubated and after that the number of alive cells after treatment was determined by cell death determination assay. Absorbance value was read in microplate reader. After the absorbance value was converted with standard curve, the number of alive and death cells can be obtained.
Percentage of the number of alive cells in each treatment can be counted by counting the number of alive cells at wells that received treatment divided with the number of alive cells at healthy control and multiplied with 100%. % The number of alive cells=B/A×100% Notes: A is the number of alive cells at healthy control, and B is the number of alive cells that received treatment. IC50 value is a number showing a sample concentration that causes death as much as 50% in a population. Such value is obtained using BioStat statistical program. b. DNA Fragmentation Analysis Method

Bax mRNA expression = test: Bax RT-PCR in MDA-MB-231 cells; settings: various concentrations, serum free medium, FIGS. 11a, 11b
Experimental: as §1

MDA-MB-231 cells = test: DNA fragmentation analysis (DNA Apoptosis Ladder Kit, gel electrophoresis); settings: MDA-MB-231 cells, 50, 75, and 100 μg/mL; FIG. 9
Experimental: as §2
Apoptosis is an active process of cell death marked with DNA chromosome cleavage, chromatin condensation, and also DNA fragmentation. In this experiment, it was observed the effect of E2.2 compound addition toward the formation of DNA fragmentation as one of apoptosis indicators. Cells were cultured in the plates. After incubation for 24 hours, it was added with E2.2 compound in various concentrations. DNA fragmentation determination was performed using DNA Apoptosis Ladder Kit.

COc1cc(O)c(C(=O)c2ccc(O)cc2)c(O)c1 [E2.2, 2,4′,6-trihydroxy-4-methoxybenzophenone]
BCl2 mRNA expression (BCl2 mRNA expression): downregulation | IC50 (MDA-MB-231 cancer cells; Homo sapiens, MDA-MB-231 cells, MTT result, serum free medium, BioStat statistical program): 36.9 µg/mL (≈ 142 µM) | effect on proliferation of MDA-MB-231 cells (percentage of alive cancer cell) (MDA-MB-231 cancer cells): anti proliferation effect | Bax mRNA level (Bax mRNA expression): upregulation | formation of DNA fragments (apoptosis marker) (MDA-MB-231 cells): apoptosis inducer effect

COc1cc(O)c(C(=O)c2ccc(O)cc2)c(O[C@@H]2O[C@H](CO)[C@@H](O)[C@H](O)[C@H]2O)c1 [F1, 4′,6-di-hydroxy-4-methoxybenzophenone-2-O-β-D-glycopyranoside]
IC50 value (MDA-MB-231 cancer cells; MDA-MB-231 cells, MTT result, serum free medium, BioStat statistical program): 65.80 µg/mL (≈ 156 µM) | effect on proliferation of MDA-MB-231 cells (percentage of alive cancer cell) (MDA-MB-231 cancer cells): anti proliferation effect
